Assay results taken from ChEMBL document CHEMBL3885861, “Open TG-GATES”.

Species on record: Rattus norvegicus
Assay: Open TG-GATES - Regimen: Daily Repeat
Type: toxicity, organism-based, Sprague-Dawley
Set-up: regimen Daily Repeat, gender Male, age 6 weeks
Settings: in vivo, po, 60 mg/kg, […], route gavage, dose level Low; for KIDNEY_L / KIDNEY_R / KIDNEY_TOTAL: tissue Kidney; for LIVER: tissue Liver; for A/G / ALP / ALT / AST / BUN / CRE / Ca / Cl / DBIL / GLC / IP / K / LDH / Na / PL / RALB / TBIL / TC / TG / TP / gamma-GTP: tissue Plasma

Structure (SMILES): C[C@](N)(Cc1ccc(O)c(O)c1)C(=O)O [METHYLDOPA]
- Lym (tissue Blood, time 28 day): 81.2%
- MCH (tissue Blood, time 28 day): 19.7 pg
- MCHC (tissue Blood, time 28 day): 35%
- MCV (tissue Blood, time 28 day): 56.4 fL
- Mono (tissue Blood, time 28 day): 2.2%
- Neu (tissue Blood, time 28 day): 15%
- PT (tissue Blood, time 28 day): 14 s
- Plat (tissue Blood, time 28 day): 108.7 x10_4/uL
- RBC (tissue Blood, time 28 day): 760.2 x10_4/ul
- Ret (tissue Blood, time 28 day): 2.5%
- WBC (tissue Blood, time 28 day): 77.4 x10_2/uL
- KIDNEY_L (time 7 day): 1 g
- KIDNEY_R (time 7 day): 1 g
- KIDNEY_TOTAL (time 7 day): 2 g
- KIDNEY_L (time 14 day): 1.1 g
- KIDNEY_R (time 14 day): 1.1 g
- KIDNEY_TOTAL (time 14 day): 2.2 g
- KIDNEY_L (time 28 day): 1.3 g
- KIDNEY_R (time 28 day): 1.3 g
- KIDNEY_TOTAL (time 28 day): 2.6 g
- LIVER (time 7 day): 10.4 g
- LIVER (time 14 day): 12.2 g
- LIVER (time 28 day): 15.2 g
- A/G (time 7 day): 0.9
- ALP (time 7 day): 1395.8 IU/L
- ALT (time 7 day): 43.4 IU/L
- AST (time 7 day): 69.4 IU/L
- BUN (time 7 day): 13.4 mg/dL
- CRE (time 7 day): 0.2 mg/dL
- Ca (time 7 day): 11 mg/dL
- Cl (time 7 day): 106.8 meq/L
- DBIL (time 7 day): 0.008 mg/dL
- GLC (time 7 day): 184 mg/dL
- IP (time 7 day): 7.2 mg/dL
- K (time 7 day): 4.6 meq/L
- LDH (time 7 day): 65.6 IU/L
- Na (time 7 day): 145 meq/L
- PL (time 7 day): 138.8 mg/dL
- RALB (time 7 day): 2.7 g/dL
- TBIL (time 7 day): 0.066 mg/dL
- TC (time 7 day): 87.4 mg/dL
- TG (time 7 day): 51.2 mg/dL
- TP (time 7 day): 5.9 g/dL
- gamma-GTP (time 7 day): 1 IU/L
- A/G (time 14 day): 0.9
- ALP (time 14 day): 1372.2 IU/L
- ALT (time 14 day): 40.6 IU/L
- AST (time 14 day): 61.6 IU/L
- BUN (time 14 day): 13.6 mg/dL
- CRE (time 14 day): 0.2 mg/dL
- Ca (time 14 day): 11.3 mg/dL
- Cl (time 14 day): 106.2 meq/L
- DBIL (time 14 day): 0.01 mg/dL
- GLC (time 14 day): 176.8 mg/dL
- IP (time 14 day): 6.6 mg/dL
- K (time 14 day): 4.3 meq/L
- LDH (time 14 day): 53 IU/L
- Na (time 14 day): 142 meq/L
- PL (time 14 day): 155.8 mg/dL
- RALB (time 14 day): 2.8 g/dL
- TBIL (time 14 day): 0.058 mg/dL
- TC (time 14 day): 89 mg/dL
- TG (time 14 day): 85.2 mg/dL
- TP (time 14 day): 5.9 g/dL
- gamma-GTP (time 14 day): 1 IU/L
- A/G (time 28 day): 0.8
- ALP (time 28 day): 1102.4 IU/L
- ALT (time 28 day): 49.8 IU/L
- AST (time 28 day): 65.6 IU/L
- BUN (time 28 day): 16 mg/dL
- CRE (time 28 day): 0.2 mg/dL
- Ca (time 28 day): 11.1 mg/dL
- Cl (time 28 day): 106.6 meq/L
- DBIL (time 28 day): 0.018 mg/dL
- GLC (time 28 day): 180.2 mg/dL
- IP (time 28 day): 5.8 mg/dL
- K (time 28 day): 4.2 meq/L
- LDH (time 28 day): 47.6 IU/L
- Na (time 28 day): 143.6 meq/L
- PL (time 28 day): 147 mg/dL
- RALB (time 28 day): 2.7 g/dL
- TBIL (time 28 day): 0.058 mg/dL
- TC (time 28 day): 77 mg/dL
- TG (time 28 day): 101.6 mg/dL
- TP (time 28 day): 6.1 g/dL
- gamma-GTP (time 28 day): 1 IU/L
